Laboratory results reported in ChEMBL document CHEMBL1123324, “Basically substituted ellipticine analogues as potential antitumor agents” (1986).
Active and inactive are the calls of the source. No cut-off for these calls is given here.

What was measured:
[1] = system: L1210; test: Inhibitory effect against L1210 leukemia in tissue culture; format: functional; conditions: Mus musculus, read-out: ID50 (the source's name)
[2] = system: HCT-8; test: Inhibitory effect against HCT8 Human colon adenocarcinoma; format: functional; conditions: read-out: ID50 (the source's name)
[3] = system: Nucleic Acid; test: Concentration at which the fluorescence of an ethidium-DNA complex was reduced by 50%; format: nucleic-acid assay
[4] = system: L1210; test: Inhibitory effect against L1210 leukemia in tissue culture; Inactive; format: functional, cell-based; conditions: Mus musculus
[5] = system: HCT-8; test: Inhibitory effect against HCT8 Human colon adenocarcinoma; inactive; format: functional, cell-based

SMILES	IC50 [1]	IC50 [2]	C50 [3]	ID50 [4]	ID50 [5]
Cc1c2cnccc2c(C)c2c1c1ccccc1n2CCCN(C)C	110 nM	390 nM			
Cc1c2cnccc2c(C)c2c1c1ccccc1n2CCN1CCOCC1	320 nM	100 nM	440 nM		
CCN(CC)C(=O)Cn1c2ccccc2c2c(C)c3cnccc3c(C)c21				inactive	
Cc1c2cc[n+](C)cc2c(C)c2c1[nH]c1ccccc12	600 nM				inactive
Cc1c2ccncc2c(C)c2c1[nH]c1ccccc12 [ELLIPTECINE]	100 nM	260 nM	1040 nM		
Cc1c2cnccc2c(C)c2c1c1ccccc1n2CCN1CCCCC1	170 nM	82 nM	122 nM		
Cc1c2cnccc2c(C)c2c1c1ccccc1n2C	430 nM		454 nM		
CCN(CC)CCn1c2ccccc2c2c(C)c3cnccc3c(C)c21	190 nM	80 nM	106 nM		
CCN(CC)CC[n+]1ccc2c(C)c3[nH]c4ccccc4c3c(C)c2c1	41 nM	500 nM	159 nM		
